Where a name gives a salt, the structure may show the parent alone.
Key:
[1] = test system: pseudotyped SARS CoV-2 particles; assay: microbe, parasite or virus in culture; type: cell-based; settings: Severe acute respiratory syndrome coronavirus 2; read-out: inhibition of pseudotyped SARS CoV-2 virus entry
[2] = test system: R18 labelled PR8 WT virus; assay: Influenza virus membrane fusion assay (R18 fluorescence); type: cell-based, Influenza A virus; settings: 90 min
SARS-CoV-2 = assay: SARS CoV-2 infection studies in the hamster model; type: in vivo, Syrian golden hamsters; settings: CQ dosed therapeutically

CN(C)C(=O)COC(=O)Cc1ccc(OC(=O)c2ccc(NC(=N)N)cc2)cc1 [CM, Camostat mesylate, reference compound]
inhibition at 500 µM [1]: 60%

Cl.N [NH4Cl, ammonium chloride]
virus-entry associated increase in fluorescence intensity ([2]; 10 μM NH4Cl): able to inhibit

CCN(CC)CCCC(C)Nc1ccnc2cc(Cl)ccc12 (centres unmarked) [CQ, Chloroquine, reference compound]
inhibition at 10 µM [1]: 90% | virus-entry associated increase in fluorescence intensity ([2]; 10 μM CQ): able to inhibit | lung viral loads reduced by (SARS-CoV-2): ~1 log

Source: patent US12268676B2, “Antiviral applications of picolinic acid and its derivatives” (INDIAN INSTITUTE OF SCIENCE, priority 2021, dated 2025)
